Laboratory results: patent US11045447B2, “Methods for inducing synaptogenesis with synaptic growth factor activating compounds” ([…], INC., priority 2018, dated 2021)
Where “and” joins values, the source holds several entries; their conditions need not be identical. Equal entries are not always repeated. Entries after “also recorded” stand apart in the source; their conditions may differ.

What was measured:
Type in all cases: in vivo, human
[1] = test system: patients with advanced Alzheimer's disease; experiment: Safety and tolerability (treatment emergent adverse events) in the same trial; conditions: 40 μg iv, 12 weeks
Description: Adults aged 55-85 with cognitive deficits present for at least 2 years, MMSE-2 of 4-15, inclusive, and a diagnosis of Alzheimer's dementia were randomly assigned to receive blinded intravenous infusions of bryostatin 24 μg or matching placebo at weeks 0 and 1. The 24 μg and 48 μg doses during the first two weeks of the 20 and 40 μg protocols respectively were considered to be “loading” doses thought to be beneficial from prior experience with Compassionate Use trial patients. Nelson et al., Alzheimers Dis. 2017 58: 521-535. In one arm, the two 24 μg doses were followed by 20 μg doses at weeks 5, 7, 9 and 11 with the Severe Impairment Battery (SIB) measured at baseline and weeks 5, 9, 13, and 15. In a second arm, the two 48 μg doses at weeks 0 and 1 were followed by 40 μg doses at weeks 5, 7, 9, and 11 with the SIB measured at baseline and weeks 5, 9, 13, and 15. The subjects were stratified by MMSE-2 in two strata: Stratum 1 (4-9) and Stratum 2 (10-15). The first primary endpoint was safety and tolerability, assessed by treatment emergent adverse events (TEAEs) with a sample size of 150 subjects randomized 1:1:1. Although efficacy was the secondary measure, the primary efficacy endpoint was SIB improvement at week 13 evaluated using a mixed model for repeated measures. A secondary efficacy endpoint was ADCS-ADL Sev. […]

[2] = test system: patients with advanced Alzheimer's disease; experiment: Severe Impairment Battery (SIB) in double-blind, randomized, placebo-controlled trial; set-up: key to SIB Total LS Mean change from baseline (MMRM) / SIB Total LS Mean change (MMRM with memantine covariate) / SIB Delta from baseline, Mean (unadjusted): change from baseline in SIB total score; low scores = greater impairment; conditions: for SIB Total Difference vs. Placebo (MMRM) / SIB Total LS Mean change from baseline (MMRM): 20 μg iv; for SIB Delta from baseline, Mean (unadjusted): Low dose (20)
Description: In a double-blind, randomized, placebo-controlled trial, bryostatin was administered by intravenous infusion (˜45 minutes) to patients with advanced Alzheimer's disease for 12 weeks at doses of 20 or 40 μg. Randomization was stratified at baseline by severe (MMSE-2, 4-9) and moderate (MMSE-2, 10-15) dementia, wherein MMSE-2 refers to Mini-Mental State Examination, version 2. The MMSE or Folstein test is a 30-point questionnaire that is used extensively in clinical and research settings to measure cognitive impairment. Low scores indicate greater impairment. Version 2 of the MMSE was published in 2010, expanding the original questionnaire's usefulness in populations with milder forms of cognitive impairment. […] Importantly, this cognitive improvement persisted and increased 30 days after all bryostatin dosing had been completed.
(§1) Adults aged 55-85 with cognitive deficits present for at least 2 years, MMSE-2 of 4-15, inclusive, and a diagnosis of Alzheimer's dementia were randomly assigned to receive blinded intravenous infusions of bryostatin 24 μg or matching placebo at weeks 0 and 1. The 24 μg and 48 μg doses during the first two weeks of the 20 and 40 μg protocols respectively were considered to be “loading” doses thought to be beneficial from prior experience with Compassionate Use trial patients. Nelson et al., Alzheimers Dis. 2017 58: 521-535. In one arm, the two 24 μg doses were followed by 20 μg doses at weeks 5, 7, 9 and 11 with the Severe Impairment Battery (SIB) measured at baseline and weeks 5, 9, 13, and 15. In a second arm, the two 48 μg doses at weeks 0 and 1 were followed by 40 μg doses at weeks 5, 7, 9, and 11 with the SIB measured at baseline and weeks 5, 9, 13, and 15. The subjects were stratified by MMSE-2 in two strata: Stratum 1 (4-9) and Stratum 2 (10-15). The first primary endpoint was safety and tolerability, assessed by treatment emergent adverse events (TEAEs) with a sample size of 150 subjects randomized 1:1:1. Although efficacy was the secondary measure, the primary efficacy endpoint was SIB improvement at week 13 evaluated using a mixed model for repeated measures. A secondary efficacy endpoint was ADCS-ADL Sev. The primary safety population included all subjects who received at least 1 dose of study drug, and efficacy was evaluated in a modified intent to treat (mITT) population that received at least 1 dose of study drug and had at least one treatment evaluation. Efficacy was evaluated both as a primary end-point in the modified intent-to-treat (mITT) population and also as a primary end point in a Completers population that included all patients that completed the entire protocols as described above.
The SIB efficacy measurement at 30 days (week 15) post dosing—after all dosing had been completed (last dose administered at week 11)—was a pre-specified exploratory endpoint. Week 15 results were only included for subjects who were not re-randomized. The mixed model assumes missing at random, but order of enrollment in the trial was not random. Since order of enrollment was not random, the assumption of missing at random is not met. For this reason, only including week 15 for those who were not re-randomized is an appropriate way to estimate week 15 results, but not an appropriate way to estimate results at the earlier visits. For this reason, estimates up through week 13 are from a mixed model that only included data through week 13 and the week 15 estimates are from a separate model. Results were generated using a mixed model with repeated measures predicting change from baseline in SIB Total Score as the response variable and using baseline score, baseline MMSE strata, treatment, visit (categorical), and visit (treatment) as predictors. […]

[3] = test system: patients with advanced Alzheimer's disease; experiment: ADCS-ADL-SIV (secondary efficacy endpoint) in the same trial
Description: as §1

[4] = Week 15 (30 days post dosing), Completer
[5] = Week 15 (30 days post dosing), FAS
[6] = 20 μg, Week 5, Completer, With Memantine
[7] = 20 μg, Week 5, Completer, Without Memantine
[8] = 20 μg, Week 5, FAS, With Memantine
[9] = 20 μg, Week 5, FAS, Without Memantine
[10] = 20 μg, Week 9, Completer, With Memantine
[11] = 20 μg, Week 9, Completer, Without Memantine
[12] = 20 μg, Week 9, FAS, With Memantine
[13] = 20 μg, Week 9, FAS, Without Memantine
[14] = 20 μg, Week 13, Completer, With Memantine
[15] = 20 μg, Week 13, Completer, Without Memantine
[16] = 20 μg, Week 13, FAS, With Memantine
[17] = 20 μg, Week 13, FAS, Without Memantine
[18] = 20 μg, Week 15, Completer, With Memantine
[19] = 20 μg, Week 15, Completer, Without Memantine
[20] = 20 μg, Week 15, FAS, With Memantine
[21] = 20 μg, Week 15, FAS, Without Memantine

SMILES: CCC/C=C/C=C/C(=O)O[C@H]1/C(=C/C(=O)OC)C[C@H]2C[C@H]([C@@H](C)O)OC(=O)C[C@H](O)C[C@@H]3C[C@H](OC(C)=O)C(C)(C)[C@](O)(C[C@@H]4C/C(=C/C(=O)OC)C[C@H](/C=C/C(C)(C)[C@]1(O)O2)O4)O3 [Bryostatin, bryostatin-1]
- Safety results [1]: more adverse events
- SIB versus baseline and placebo (in words) ([2]; 20 μg dose, throughout the 13-week trial): sustained improvement in SIB
- SIB Total Difference vs. Placebo (MMRM) ([2]; Week 5, Completer): 4.00
- SIB Total LS Mean change from baseline (MMRM) ([2]; Week 5, Completer): 1.67
- SIB Total Difference vs. Placebo (MMRM) ([2]; Week 5, FAS): 2.96
- SIB Total LS Mean change from baseline (MMRM) ([2]; Week 5, FAS): 1.18
- SIB Total Difference vs. Placebo (MMRM) ([2]; Week 9, Completer): 1.85
- SIB Total LS Mean change from baseline (MMRM) ([2]; Week 9, Completer): 1.28
- SIB Total Difference vs. Placebo (MMRM) ([2]; Week 9, FAS): 1.03
- SIB Total LS Mean change from baseline (MMRM) ([2]; Week 9, FAS): 0.94
- SIB Total Difference vs. Placebo (MMRM) ([2]; Week 13, Completer): 2.63
- SIB Total LS Mean change from baseline (MMRM) ([2]; Week 13, Completer): 1.51
- SIB Total Difference vs. Placebo (MMRM) ([2]; Week 13, Completer, listed as bryostatin): 2.6
- SIB Total Difference vs. Placebo (MMRM) ([2]; Week 13, FAS): 1.94
- SIB Total LS Mean change from baseline (MMRM) ([2]; Week 13, FAS): 1.16
- SIB Total Difference vs. Placebo (MMRM) [2, 4]: 4.09
- SIB Total LS Mean change from baseline (MMRM) [2, 4]: 1.96
- SIB Total Difference vs. Placebo (MMRM) ([2]; Week 15 (30 days post dosing), Completer, listed as bryostatin): 4.0 and 4.09
- SIB Total Difference vs. Placebo (MMRM) [2, 5]: 3.59
- SIB Total LS Mean change from baseline (MMRM) [2, 5]: 1.77
- SIB Total Difference vs. Placebo (MMRM with memantine covariate) [2, 6]: 2.94
- SIB Total LS Mean change (MMRM with memantine covariate) [2, 6]: 0.61
- SIB Total Difference vs. Placebo (MMRM with memantine covariate) [2, 7]: 5.38
- SIB Total LS Mean change (MMRM with memantine covariate) [2, 7]: 3.22
- SIB Total Difference vs. Placebo (MMRM with memantine covariate) [2, 8]: 1.96
- SIB Total LS Mean change (MMRM with memantine covariate) [2, 8]: 0.26
- SIB Total Difference vs. Placebo (MMRM with memantine covariate) [2, 9]: 4.48
- SIB Total LS Mean change (MMRM with memantine covariate) [2, 9]: 2.74
- SIB Total Difference vs. Placebo (MMRM with memantine covariate) [2, 10]: 0.90
- SIB Total LS Mean change (MMRM with memantine covariate) [2, 10]: −0.16
- SIB Total Difference vs. Placebo (MMRM with memantine covariate) [2, 11]: 2.66
- SIB Total LS Mean change (MMRM with memantine covariate) [2, 11]: 3.34
- SIB Total Difference vs. Placebo (MMRM with memantine covariate) [2, 12]: 0.09
- SIB Total LS Mean change (MMRM with memantine covariate) [2, 12]: −0.33
- SIB Total Difference vs. Placebo (MMRM with memantine covariate) [2, 13]: 2.08
- SIB Total LS Mean change (MMRM with memantine covariate) [2, 13]: 2.95
- SIB Total Difference vs. Placebo (MMRM with memantine covariate) [2, 14]: 0.56
- SIB Total LS Mean change (MMRM with memantine covariate) [2, 14]: −0.39
- SIB Total Difference vs. Placebo (MMRM with memantine covariate) [2, 15]: 5.53
- SIB Total LS Mean change (MMRM with memantine covariate) [2, 15]: 4.22
- SIB Total Difference vs. Placebo (MMRM with memantine covariate) [2, 16]: −0.14
- SIB Total LS Mean change (MMRM with memantine covariate) [2, 16]: −0.60
- SIB Total Difference vs. Placebo (MMRM with memantine covariate) [2, 17]: 5.11
- SIB Total LS Mean change (MMRM with memantine covariate) [2, 17]: 3.83
- SIB Total Difference vs. Placebo (MMRM with memantine covariate) [2, 18]: 1.45
- SIB Total LS Mean change (MMRM with memantine covariate) [2, 18]: −0.71
- SIB Total Difference vs. Placebo (MMRM with memantine covariate) [2, 19]: 6.36
- SIB Total LS Mean change (MMRM with memantine covariate) [2, 19]: 6.24
- SIB Total Difference vs. Placebo (MMRM with memantine covariate) [2, 20]: 0.79
- SIB Total LS Mean change (MMRM with memantine covariate) [2, 20]: −0.83
- SIB Total Difference vs. Placebo (MMRM with memantine covariate) [2, 21]: 5.93
- SIB Total LS Mean change (MMRM with memantine covariate) [2, 21]: 5.88
- Mean slope of SIB over time, Weighted Slope ([2]; 20 μg, weighted by number of non-zero SIB scores, second column group (memantine exposed, stratum not given)): −0.099
- SIB versus baseline and placebo (in words) ([2]; 40 μg dose): lack of efficacy; also recorded: no SIB improvement
- SIB Delta from baseline, Mean (unadjusted) ([2]; Ave of Week 13 and 15, Memantine Exposed Patients, FAS): −0.727
- SIB Delta from baseline, Mean (unadjusted) ([2]; Ave of Week 13 and 15, Memantine Treatment-Naïve Patients, FAS): 5.406
- SIB Delta from baseline, Mean (unadjusted) ([2]; Week 5, Memantine Exposed Patients, FAS): 0.077
- SIB Delta from baseline, Mean (unadjusted) ([2]; Week 5, Memantine Treatment-Naïve Patients, FAS): 3.444
- SIB Delta from baseline, Mean (unadjusted) ([2]; Week 9, Memantine Exposed Patients, FAS): −0.087
- SIB Delta from baseline, Mean (unadjusted) ([2]; Week 9, Memantine Treatment-Naïve Patients, FAS): 3.467
- SIB Delta from baseline, Mean (unadjusted) ([2]; Week 13, Memantine Exposed Patients, FAS): −0.545
- SIB Delta from baseline, Mean (unadjusted) ([2]; Week 13, Memantine Treatment-Naïve Patients, FAS): 4.500
- Treatment effect on SIB at 13/15 weeks from baseline (ANCOVA coefficient, 20 μg vs placebo) ([2]; Memantine Exposed, adjusted for Base SIB, MMSE-2): −0.620
- Treatment effect on SIB at 13/15 weeks from baseline (ANCOVA coefficient, 20 μg vs placebo) ([2]; Memantine Exposed, adjusted for Baseline SIB): −0.531
- Treatment effect on SIB at 13/15 weeks from baseline (ANCOVA coefficient, 20 μg vs placebo) ([2]; Memantine Naïve, adjusted for Base SIB, MMSE-2): 5.923
- Treatment effect on SIB at 13/15 weeks from baseline (ANCOVA coefficient, 20 μg vs placebo) ([2]; Memantine Naïve, adjusted for Baseline SIB): 5.426
- SIB improvement (in words) ([2]; patients on memantine, week 13 or 15): no SIB improvement
- ADCS-ADL, subgroups with and without memantine as background SOC therapy (in words) ([3]; 20 μg): not significantly different above placebo
- ADCS-ADL difference from placebo ([3]; 20 μg, completers group): 1.6
- ADCS-ADL difference from placebo ([3]; 20 μg, mITT group): 1.4
- ADCS-ADL efficacy (in words) ([3]; 40 μg dose): significant for the 20 μg but not the 40 μg dose
